{"source": "patent US4687773A", "about": "“(+)-N-N-propylnorapomorphine and selective limbic activity” (priority 1985, dated 1987)", "tested_on": "dopamine (DA) receptors in the limbic system and basal ganglia", "experiment": "Total motor activity, electronic activity monitor (EAM)", "assay_type": "in vivo, rat", "note": "Structures can show the parent of a compound that is named as a salt."}
{"smiles": "CCCN1CCc2cccc3c2[C@@H]1Cc1ccc(O)c(O)c1-3", "note": "[(+)NPA, (S)-N-n-Propylnorapomorphine Hydrochloride]", "values": [{"measurement": "Total Activity", "setting": "Table 3, 0.1 mg/kg, s.c.", "result": "3.2 ± 1.1 percent change vs. placebo con"}, {"measurement": "Total Activity", "setting": "Table 3, 0.3 mg/kg, s.c.", "result": "-5.2 ± 3.1 percent change vs. placebo con"}, {"measurement": "Total Activity", "setting": "Table 3, 3.0 mg/kg, s.c.", "result": "-50.0 ± 18 percent change vs. placebo con"}, {"measurement": "Total Activity", "setting": "Table 3, 5.0 mg/kg, s.c.", "result": "-52.1 ± 21 percent change vs. placebo con"}, {"measurement": "Total Activity", "setting": "Table 5, (+)NPA 3 mg/kg s.c. after (-)NPA 0.3 mg/kg", "result": "18.8 ± 2.6", "unit": "percent change"}, {"measurement": "Total Activity", "setting": "Table 5, (+)NPA 3 mg/kg s.c. after (-)NPA 3.0 mg/kg", "result": "156.7 ± 26", "unit": "percent change"}, {"measurement": "Total Activity", "setting": "Table 5, (+)NPA 3 mg/kg s.c., (-)NPA 0", "result": 0, "unit": "percent change"}]}
